The source of these data is US20250154169A1, “COMPOUNDS AND METHODS FOR MODULATING SPLICING” (REMIX THERAPEUTICS INC., priority 2021, published 2025).

For one test, the system named is MYB mRNA. As to the kind of experiment: Splicing RT-qPCR assay, MYB canonical (CJ) and alternative (AJ) junction mRNA. The class given is cell-based, human. As to conditions: Homo sapiens, A673 or K562 cells, 24 hours compound treatment, RT-qPCR; for AC50: read-out: MYB AJ (AC50, increase in alternative junction mRNA); for IC50: read-out: MYB CJ (IC50, decrease in canonical junction mRNA). Summed up:
(§1)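 Read-out is the abundance of canonical-junction versus new alternative-exon-junction mRNA, determined by real-time qPCR after cDNA synthesis and normalized to a housekeeping gene. It is measured in A673 or K562 cells exposed to compounds for 24 h, top dose 10 uM.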
(In general: In qPCR the cycle at which signal appears reflects the starting amount.)

In another test the test system is HTT mRNA. Nature of the test: Splicing RT-qPCR assay, HTT canonical (CJ) and alternative (AJ) junction mRNA. The class given is cell-based, human. The settings on record: Homo sapiens, A673 or K562 cells, 24 hours compound treatment; for IC50: read-out: HTT CJ (IC50, decrease in canonical junction mRNA); for AC50: read-out: HTT AJ (AC50, increase in alternative junction mRNA). The gist of the method: as §1

Read-outs that look alike come from different tables or passages of the source. Bounds are passed on as bounds.

What is called AC50 is the concentration at which the activity in the assay is half-maximal. Broadly, the IC50 is the point on the concentration scale where inhibition reaches its midpoint. `Cc1cn2cc(NC(=O)c3ccc(N4CCN[C@@H](C(C)C)C4)c4cn(C)nc34)cc(F)c2n1` [Compound 589, N-{8-fluoro-2-methylimidazo[1,2-a]pyridin-6-yl}-4-[(3S)-3-isopropylpiperazin-1-yl]-2-methylindazole-7-carboxamide]: the AC50 with MYB mRNA (24 h) was 1 to 10 µM; in the test on HTT mRNA, more than 10 µM. In addition, the IC50 in the test on MYB mRNA (24 h) was 0.1 to 1 µM; in the test on HTT mRNA (24 h), more than 10 µM.

With `CCn1cc2c(N3CCC(NC4(CO)CC4)CC3)ccc(C(=O)Nc3cc(F)c4nc(C)cn4c3)c2n1` [Compound 590], the half-maximal activity concentration (AC50) in the test with MYB mRNA (24 h) was 0.1 to 1 µM; in the test on HTT mRNA it was 1 to 10 µM. Besides, the figures for the half-inhibitory concentration (IC50) in the test on MYB mRNA (24 h) and in the test with HTT mRNA (24 h) were 0.1 to 1 µM and 1 to 10 µM, respectively.

With `CCn1cc2c(N3C[C@H](C)N[C@@H](C)C3)ccc(C(=O)Nc3cc(F)c4nc(C)cn4c3)c2n1` [Compound 592], the half-maximal activity concentration (AC50) with MYB mRNA (24 h) was 0.1 to 1 µM; in the test on HTT mRNA, more than 10 µM. For the same compound, the figures for the half-maximal inhibitory concentration (IC50) in the test on MYB mRNA (24 h) and in the test on HTT mRNA (24 h) were 0.1 to 1 µM and 1 to 10 µM, respectively.

Turning to `Cc1cn2cc(NC(=O)c3ccc(N4CC[C@@H](NCc5ncccn5)C4)c4cn(C)nc34)cc(F)c2n1` [Compound 594, N-{8-fluoro-2-methylimidazo[1,2-a]pyridin-6-yl}-2-methyl-4-[(3R)-3-[(pyrimidin-2-ylmethyl)amino]pyrrolidin-1-yl]indazole-7-carboxamide], the AC50 with MYB mRNA (24 h) is 1 to 10 µM; with HTT mRNA it was more than 10 µM. Moreover, the values for the IC50 in the test on MYB mRNA (24 h) and with HTT mRNA (24 h) were 0.1 to 1 µM and more than 10 µM, respectively.

Consider `Cc1cn2cc(NC(=O)c3ccc(N4CC[C@@H](NC5(C#N)CC5)C4)c4cn(C)nc34)cc(F)c2n1` [Compound 596, 4-[(3R)-3-[(1-cyanocyclopropyl)amino]pyrrolidin-1-yl]-N-{8-fluoro-2-methylimidazo[1,2-a]pyridin-6-yl}-2-methylindazole-7-carboxamide], for which the AC50 with MYB mRNA (24 h) was 1 to 10 µM; in the test on HTT mRNA, more than 10 µM. Moreover, the IC50 with MYB mRNA (24 h) was 1 to 10 µM; in the test with HTT mRNA (24 h), more than 10 µM.

On to `Cc1cn2cc(NC(=O)c3ccc(N4CC[C@@H](NC5(C)CC5)C4)c4cn(C)nc34)cc(F)c2n1` [Compound 598], for which the half-maximal activity concentration (AC50) in the test on MYB mRNA (24 h) lay within 0.1 to 1 µM; in the test with HTT mRNA it was 1 to 10 µM. The IC50 is less than 0.1 µM in the test on MYB mRNA (24 h) and 1 to 10 µM in the test with HTT mRNA (24 h).

As to `CCn1cc2c(N3C[C@@H](C)N[C@@H](C(C)C)C3)ccc(C(=O)Nc3cc(F)c4nc(C)cn4c3)c2n1` [Compound 600, 2-ethyl-N-{8-fluoro-2-methylimidazo[1,2-a]pyridin-6-yl}-4-[(3S,5R)-3-isopropyl-5-methylpiperazin-1-yl] indazole-7-carboxamide], the results for the AC50 in the test on MYB mRNA (24 h) and with HTT mRNA were 1 to 10 µM and more than 10 µM, respectively. For the same compound, the IC50 in the test with MYB mRNA (24 h) is 1 to 10 µM; in the test with HTT mRNA (24 h), more than 10 µM.

In the case of `Cc1cn2cc(NC(=O)c3ccc(N4CC[C@@H](NC5CC(O)C5)C4)c4cn(C)nc34)cc(F)c2n1` (stereo partly shown) [Compound 602], the concentration at half-maximal activity (AC50) with MYB mRNA (24 h) was in the range of 0.1 to 1 µM; in the test with HTT mRNA, 1 to 10 µM. Moreover, the IC50 in the test with MYB mRNA (24 h) was less than 0.1 µM; in the test on HTT mRNA (24 h), 1 to 10 µM.

Turning to `Cc1cn2cc(NC(=O)c3ccc(N4CC[C@H](NC5CC(O)C5)C4)c4cn(C)nc34)cc(F)c2n1` (stereo partly shown) [Compound 603], the AC50 with MYB mRNA (24 h) and with HTT mRNA was more than 10 µM throughout. The half-maximal inhibitory concentration (IC50) was 1 to 10 µM with MYB mRNA (24 h) and more than 10 µM in the test on HTT mRNA (24 h).

As to `CCn1cc2c(N3CCNCC3)ccc(C(=O)Nc3cn4cc(C)nc4c(Cl)n3)c2n1` [Compound 604, N-{8-chloro-2-methylimidazo[1,2-a]pyrazin-6-yl}-2-ethyl-4-(piperazin-1-yl) indazole-7-carboxamide], the AC50 was 1 to 10 µM in the test with MYB mRNA (24 h) and more than 10 µM in the test with HTT mRNA. In addition, the half-inhibitory concentration (IC50) with MYB mRNA (24 h) is 1 to 10 µM; in the test with HTT mRNA (24 h), more than 10 µM.

Regarding `Cc1cn2cc(NC(=O)c3ccc(N4CCN[C@@H](C5CC5)C4)c4cn(C)nc34)cc(F)c2n1` [Compound 606, 4-[(3S)-3-cyclopropylpiperazin-1-yl]-N-{8-fluoro-2-methylimidazo[1,2-a]pyridin-6-yl}-2-methylindazole-7-carboxamide], the AC50 in the test on MYB mRNA (24 h) was 0.1 to 1 µM; in the test with HTT mRNA, 1 to 10 µM. Moreover, the IC50 in the test on MYB mRNA (24 h) and with HTT mRNA (24 h) was 0.1 to 1 µM each time.

For the compound `Cc1cn2cc(NC(=O)c3ccc(N4CCN[C@H](C5CC5)C4)c4cn(C)nc34)cc(F)c2n1` [Compound 607, 4-[(3R)-3-cyclopropylpiperazin-1-yl]-N-{8-fluoro-2-methylimidazo[1,2-a]pyridin-6-yl}-2-methylindazole-7-carboxamide], the AC50 lay within 0.1 to 1 µM in the test with MYB mRNA (24 h) and 1 to 10 µM in the test with HTT mRNA. For the same compound, the IC50 in the test with MYB mRNA (24 h) lay in the range of 0.1 to 1 µM; in the test with HTT mRNA (24 h) it was 1 to 10 µM.

Regarding `CN[C@@H]1CCN(c2ccc(C(=O)Nc3cn4cc(C)nc4c(Oc4ccccc4)n3)c3nn(C)cc23)C1` [Compound 610, 2-methyl-N-{2-methyl-8-phenoxyimidazo[1,2-a]pyrazin-6-yl}-4-[(3R)-3-(methylamino)pyrrolidin-1-yl]indazole-7-carboxamide], the concentration at half-maximal activity (AC50) with MYB mRNA (24 h) was in the range of 0.1 to 1 µM; with HTT mRNA, 1 to 10 µM. Moreover, the IC50 in the test with MYB mRNA (24 h) was 0.1 to 1 µM; with HTT mRNA (24 h), more than 10 µM.

Regarding `CN[C@@H]1CCN(c2ccc(C(=O)Nc3cn4cc(C)nc4c(N4CCOCC4)n3)c3nn(C)cc23)C1` [Compound 612, 2-methyl-N-[2-methyl-8-(morpholin-4-yl)imidazo[1,2-a]pyrazin-6-yl]-4-[(3R)-3-(methylamino)pyrrolidin-1-yl]indazole-7-carboxamide], the AC50 in the test with MYB mRNA (24 h) and in the test on HTT mRNA was more than 10 µM in each case. The IC50 in the test on MYB mRNA (24 h) and in the test on HTT mRNA (24 h) was more than 10 µM throughout.

As to `CN[C@@H]1CCN(c2ccc(C(=O)Nc3cn4cc(C)nc4c(Cl)n3)c3nn(C)cc23)C1` [Compound 614], the concentration at half-maximal activity (AC50) was 0.1 to 1 µM in the test on MYB mRNA (24 h) and more than 10 µM with HTT mRNA. The half-maximal inhibitory concentration (IC50) in the test on MYB mRNA (24 h) was 0.1 to 1 µM; in the test with HTT mRNA (24 h), more than 10 µM.

`CCn1cc2c(N3C[C@@H](C)N[C@@H](C4CC4)C3)ccc(C(=O)Nc3cc(F)c4nc(C)cn4c3)c2n1` [Compound 616, 4-((3S,5R)-3-cyclopropyl-5-methylpiperazin-1-yl)-2-ethyl-N-(8-fluoro-2-methylimidazo[1,2-a]pyridin-6-yl)-2H-indazole-7-carboxamide]: the figures for the concentration at half-maximal activity (AC50) in the test with MYB mRNA (24 h) and in the test with HTT mRNA were 0.1 to 1 µM and 1 to 10 µM, respectively. In addition, the half-inhibitory concentration (IC50) with MYB mRNA (24 h) and in the test with HTT mRNA (24 h) was 0.1 to 1 µM in each case.

In the case of `CCn1cc2c(N3C[C@@H](C4CC4)N[C@@H](C)C3)ccc(C(=O)Nc3cc(F)c4nc(C)cn4c3)c2n1` [Compound 617, 4-((3R,5S)-3-cyclopropyl-5-methylpiperazin-1-yl)-2-ethyl-N-(8-fluoro-2-methylimidazo[1,2-a]pyridin-6-yl)-2H-indazole-7-carboxamide], the half-maximal activity concentration (AC50) in the test with MYB mRNA (24 h) is 1 to 10 µM; in the test with HTT mRNA it was more than 10 µM. In addition, the half-inhibitory concentration (IC50) was 0.1 to 1 µM with MYB mRNA (24 h) and 1 to 10 µM in the test on HTT mRNA (24 h).

`CCn1cc2c(N3CC[C@@H](N(C)C)C3)cc(Cl)c(C(=O)Nc3cc(F)c4nc(C)cn4c3)c2n1` [Compound 619, 6-chloro-4-[(3R)-3-(dimethylamino)pyrrolidin-1-yl]-2-ethyl-N-{8-fluoro-2-methylimidazo[1,2-a]pyridin-6-yl}indazole-7-carboxamide]: the AC50 in the test with MYB mRNA (24 h) was 0.1 to 1 µM; with HTT mRNA, more than 10 µM. The IC50 is 0.1 to 1 µM in the test on MYB mRNA (24 h) and more than 10 µM in the test on HTT mRNA (24 h).

For `Cc1cn2cc(NC(=O)c3ccc(N4CC[C@@H](N5C[C@@H](C)N[C@@H](C)C5)C4)c4cn(C)nc34)cc(F)c2n1` [Compound 621, 4-[(3R)-3-[(3R,5S)-3,5-dimethylpiperazin-1-yl]pyrrolidin-1-yl]-N-{8-fluoro-2-methylimidazo[1,2-a]pyridin-6-yl}-2-methylindazole-7-carboxamide], the values for the half-maximal activity concentration (AC50) in the test with MYB mRNA (24 h) and with HTT mRNA were 0.1 to 1 µM and more than 10 µM, respectively. For the same compound, the figures for the IC50 in the test on MYB mRNA (24 h) and with HTT mRNA (24 h) were 1 to 10 µM and more than 10 µM, respectively.

Consider `Cc1cn2cc(NC(=O)c3ccc(N4CCC(N5C6CNCC65)C4)c4cn(C)nc34)cc(F)c2n1` (stereo not shown) [Compound 622, 4-(3-{3,6-diazabicyclo[3.1.0]hexan-6-yl}pyrrolidin-1-yl)-N-{8-fluoro-2-methylimidazo[1,2-a]pyridin-6-yl}-2-methylindazole-7-carboxamide], for which, in the test with MYB mRNA, the AC50 was more than 10 µM and the 50% inhibitory concentration (IC50) fell in the range of 1 to 10 µM. Besides, in the test with HTT mRNA, the concentration at half-maximal activity (AC50) was more than 10 µM and the concentration for half-maximal inhibition (IC50) is more than 10 µM.

As to `CN[C@@H]1CCN(c2ccc(C(=O)Nc3nc(OC)c4nn(C)cc4n3)c3nn(C)cc23)C1` [Compound 624, N-{7-methoxy-2-methylpyrazolo[4,3-d]pyrimidin-5-yl}-2-methyl-4-[(3R)-3-(methylamino)pyrrolidin-1-yl]indazole-7-carboxamide], the half-maximal activity concentration (AC50) in the test on MYB mRNA (24 h) and in the test on HTT mRNA was 1 to 10 µM each time. Also, the concentration for half-maximal inhibition (IC50) in the test on MYB mRNA (24 h) and with HTT mRNA (24 h) was 1 to 10 µM each time.

Consider `CN[C@@H]1CCN(c2ccc(C(=O)Nc3cn4cc(C)nc4c(OC4CC4)n3)c3nn(C)cc23)C1` [Compound 626, N-{8-cyclopropoxy-2-methylimidazo[1,2-a]pyrazin-6-yl}-2-methyl-4-[(3R)-3-(methylamino)pyrrolidin-1-yl]indazole-7-carboxamide], for which the AC50 with MYB mRNA (24 h) lay within 0.1 to 1 µM; in the test with HTT mRNA it was 1 to 10 µM. Further, the concentration for half-maximal inhibition (IC50) in the test on MYB mRNA (24 h) was 0.1 to 1 µM; with HTT mRNA (24 h), 1 to 10 µM.
